# Laboratory results reported in a melting point compilation (Tetko et al.; mined from patent text by program, amines drawn as free bases though some values may be those of a salt).
row,melting point,Compound
1,180 to 220 °C,O=C(O)Cc1ccc(C(NC(=O)c2ccccc2)C(=O)O)cc1 (centres undefined)
2,139 to 142 °C,Cn1c(I)nc2c(C(F)(F)F)nc(NCCc3ccccc3)nc21
3,50 to 52 °C,O=[N+]([O-])c1ccc(SCCCCl)cc1
4,139 to 141 °C,CCCNC(=O)CCCCCn1c(CCC)nc2c(N)nc3ccccc3c21
5,170 °C,CCc1nnc(-c2cccc(N(C)C)c2)n1-c1ccc(OC)cc1
6,122 to 125 °C,CC1(O)CC(=O)OC(CCc2ccccc2OCc2ccccc2)C1Br (centres undefined)
7,207 to 208 °C,Oc1ccc2c(c1)Nc1ccccc1S2
8,169 to 172 °C,Cc1c(C(=O)NC2CCN(Cc3ccccc3)CC2)c2cc(F)ccc2n1C
9,70 to 72 °C,Cc1cc(Oc2cccc(C(F)(F)F)c2)nn1C(=O)Nc1ccc(F)cc1
10,206 to 208 °C,N=C(N)NC[C@H]1CC[C@H](C(=O)O)CC1
11,82 to 83 °C,COc1cc(/C=C/C(=O)/C=C/c2ccc(O)c(OC)c2)ccc1O
12,98 to 100 °C,Cc1c(C)c(S(=O)(=O)C[N+](=O)[O-])c(C)c2c1OC(C)(C)CC2
13,131 to 132 °C,O=C(O)c1nc(Sc2ccccc2)ccc1Sc1ccccc1
14,231 to 233 °C,CC(C)(C)c1cc(-c2nc3n(c2CN2CCOCC2)CCS3)cc(C(C)(C)C)c1O
15,172 to 173 °C,Cc1cnc(CNC(=O)c2sc(N3CCN(Cc4ccc(C(F)(F)F)cc4)C3=O)nc2C)cn1
16,125 to 128 °C,Cc1cccc2c1C(=O)CC2=O
17,139 to 140 °C,O=C(NCCO)c1cccc(-c2cccc3cc(Cc4cc(F)cc(Cl)c4)sc23)n1
18,122 to 123 °C,S=C(Cc1ccccc1)n1c(-c2cscn2)nc2ccccc21
19,180 to 182 °C,c1ccc2c(c1)CC(CN1CCN(c3ccc4c(c3)CCO4)CC1)C2

row,melting point,Compound
1,168 to 170 °C,Cc1ccc(C(Cl)=CC(=O)NC(Cc2ccccc2)C(=O)O)cc1 (centres undefined)
2,43 to 45 °C,c1ccc(CN2CCC3(Cc4ccccc4O3)C2)cc1 (centres undefined)
3,156 to 157 °C,CCOC(=O)NN1CCc2ccccc2C(Oc2ccc(C(F)(F)F)cc2)C1 (centres undefined)
4,146 to 148 °C,CCCCOCCOc1ccc(-c2ccc3c(c2)C=C(C(=O)Nc2ccc(S(=O)Cc4nccn4CC(=O)O)cc2)CCN3CC(C)C)cc1 (centres undefined)
5,283 °C,Cc1cc(-c2cc(C(F)(F)F)n3ncc(C(=O)Nc4cc(S(N)(=O)=O)sc4Cl)c3n2)ccc1C(F)(F)F
6,83 to 87 °C,CCOC(=O)c1ccc(NCCCCCCCCCCCOc2ccccc2)cc1
7,151 to 156 °C,O=C1C=C(N2CCCCC2)c2oc3ccccc3c2C1=O
8,160 to 161 °C,CN1C(=O)SC(C)(S(=O)(=O)c2cccc3c(Br)cccc23)C1=O (centres undefined)
9,170 °C,CCCc1c(OCCCS(=O)(=O)c2c(C(C)C)nn3ccccc23)ccc(C(C)=O)c1O
10,97 to 99 °C,Cn1c(COc2ccc(CC3SC(=O)N(C(c4ccccc4)(c4ccccc4)c4ccccc4)C3=O)cc2)nc2ccc(Cl)nc21 (centres undefined)
11,90 to 92 °C,OC(CCc1cccnc1)CSc1ccc2ccccc2c1 (centres undefined)
12,84.5 to 87 °C,C=CCNC(=O)C=Cc1cccc(F)c1
13,112 to 113 °C,O=C(O)CCc1cccc(C(O)(C(F)(F)F)C(F)(F)F)c1
14,119 to 124 °C,CN(C)c1ccc(N=Nc2ccccc2C(=O)NCCN)cc1
15,170 to 172 °C,CCc1nc2c(N)nc3ccccc3c2s1
16,82 to 83.5 °C,CCC(=O)NCc1nc(-c2cc(C(C)(C)C)c(O)c(C(C)(C)C)c2)cs1
17,166 to 168 °C,COc1cc(C=CC(=O)c2ccccc2)cc(C(F)(F)F)c1O
18,140 °C,Cc1cc(-c2nc(-c3ccc(OC(F)(F)F)cc3)no2)nn1Cc1ccnc(N2CCN(C3CC3)CC2)c1
19,65 °C,O=C(Nn1ccc2ccccc21)C1=CCCN(CCN2CCCCC2)C1

row,Compound,melting point
1,N#CC1(c2ccccc2Oc2ccc(Cl)cc2)CCNCC1,128 to 130 °C
